From publication PMC4055459, “Imatinib Treatment Causes Substantial Transcriptional Changes in Adult Schistosoma mansoni In Vitro Exhibiting Pleiotropic Effects” (PLoS Neglected Tropical Diseases, 2014)

Molecular target: T1, SmAbl2-TK (SmAbl2) (Schistosoma mansoni, UniProt D1H0Y8)
T1 construct: gene abl2; capped cRNA injected into Xenopus laevis stage VI oocytes
T1 sequence (D1H0Y8 283-538 limits assumed): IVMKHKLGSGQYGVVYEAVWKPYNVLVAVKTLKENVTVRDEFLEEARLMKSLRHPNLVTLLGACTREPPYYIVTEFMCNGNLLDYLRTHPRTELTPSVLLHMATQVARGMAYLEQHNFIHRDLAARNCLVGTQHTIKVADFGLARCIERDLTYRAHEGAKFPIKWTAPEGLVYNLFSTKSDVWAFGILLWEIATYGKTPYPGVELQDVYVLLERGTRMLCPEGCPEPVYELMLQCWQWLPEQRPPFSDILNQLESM
Test: germinal vesicle breakdown (GVBD) assay, cRNA-injected Xenopus oocytes
Format: cell-based
Settings: remaining GVBD-inducing activity; ND96, 19 °C, 18 h after injection, pools of 10 oocytes

CO[C@H]1[C@@H](OC)C[C@H](C)[C@@H](OC)C2=CC(=O)C=C(NC(=O)/C(C)=C/C=C\[C@H](OC)[C@@H](OC(N)=O)/C(C)=C/[C@@H]1C)C2=O [Herbimycin A]
% GVBD at 10 μM: 90%
